Experimental data published in ChEMBL document CHEMBL1201862, “PubChem BioAssay data set” (2004).
Active and inactive are the calls of the source.

What was measured:
[1] = target: T1, Aminopeptidase N (Plasmodium falciparum FcB1/Columbia, UniProt O96935); assay: malaria alanyl aminopeptidase activity blockers – biochemical, fluorogenic H-Leu-NHMec substrate, 1536-well (AID 1445); design: species or system Plasmodium falciparum 3D7, 3D7
T1 sequence (O96935 whole entry): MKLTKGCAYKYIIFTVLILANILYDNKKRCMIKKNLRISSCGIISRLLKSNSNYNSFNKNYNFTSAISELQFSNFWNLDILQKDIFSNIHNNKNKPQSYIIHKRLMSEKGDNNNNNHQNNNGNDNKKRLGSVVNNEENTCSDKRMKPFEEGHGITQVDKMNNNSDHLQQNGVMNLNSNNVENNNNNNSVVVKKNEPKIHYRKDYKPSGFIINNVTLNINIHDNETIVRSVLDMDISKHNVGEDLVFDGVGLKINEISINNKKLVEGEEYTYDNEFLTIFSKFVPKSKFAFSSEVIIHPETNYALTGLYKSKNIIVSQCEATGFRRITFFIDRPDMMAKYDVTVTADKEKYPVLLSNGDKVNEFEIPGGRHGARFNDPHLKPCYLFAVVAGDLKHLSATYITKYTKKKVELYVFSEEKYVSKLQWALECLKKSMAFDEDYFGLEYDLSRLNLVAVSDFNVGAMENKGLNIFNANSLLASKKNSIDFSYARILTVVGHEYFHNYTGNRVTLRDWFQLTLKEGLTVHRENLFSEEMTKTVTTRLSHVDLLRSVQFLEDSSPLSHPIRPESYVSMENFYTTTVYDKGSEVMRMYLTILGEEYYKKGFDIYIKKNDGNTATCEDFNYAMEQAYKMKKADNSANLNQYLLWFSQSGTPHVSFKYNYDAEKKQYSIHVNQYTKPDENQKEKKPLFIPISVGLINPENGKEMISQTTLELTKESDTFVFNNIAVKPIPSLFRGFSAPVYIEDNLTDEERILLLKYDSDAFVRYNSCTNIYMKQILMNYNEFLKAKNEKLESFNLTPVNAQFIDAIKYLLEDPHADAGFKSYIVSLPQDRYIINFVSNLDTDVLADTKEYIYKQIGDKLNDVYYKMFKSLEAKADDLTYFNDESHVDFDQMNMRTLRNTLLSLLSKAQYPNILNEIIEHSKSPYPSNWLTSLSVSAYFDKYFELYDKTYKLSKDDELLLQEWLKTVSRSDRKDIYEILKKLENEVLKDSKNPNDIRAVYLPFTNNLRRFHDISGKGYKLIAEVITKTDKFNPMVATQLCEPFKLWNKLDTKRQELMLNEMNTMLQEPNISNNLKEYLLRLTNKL

[2] = target: Bifunctional protein GlmU (Mycobacterium tuberculosis, UniProt P9WMN3); assay: Inhibitors of Mycobacterial Glucosamine-1-phosphate acetyl transferase (GlmU). Secondary screen.; design: species or system Mycobacterium tuberculosis H37Rv
[3] = antiviral protection against BTV-induced cell death – arbovirus, BSR cells, confirmation (AID 1250); assay type: functional;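 further: protection from viral cytopathic effect measured as cell viability by ATP luminescence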
[4] = target: T2, Hexokinase HKDC1 (Homo sapiens, UniProt Q2TB90); assay: inhibition of HKDC1 glucose phosphorylation – biochemical, W721R variant, dose response (AID 504729); assay type: functional
T2 sequence (Q2TB90 whole entry): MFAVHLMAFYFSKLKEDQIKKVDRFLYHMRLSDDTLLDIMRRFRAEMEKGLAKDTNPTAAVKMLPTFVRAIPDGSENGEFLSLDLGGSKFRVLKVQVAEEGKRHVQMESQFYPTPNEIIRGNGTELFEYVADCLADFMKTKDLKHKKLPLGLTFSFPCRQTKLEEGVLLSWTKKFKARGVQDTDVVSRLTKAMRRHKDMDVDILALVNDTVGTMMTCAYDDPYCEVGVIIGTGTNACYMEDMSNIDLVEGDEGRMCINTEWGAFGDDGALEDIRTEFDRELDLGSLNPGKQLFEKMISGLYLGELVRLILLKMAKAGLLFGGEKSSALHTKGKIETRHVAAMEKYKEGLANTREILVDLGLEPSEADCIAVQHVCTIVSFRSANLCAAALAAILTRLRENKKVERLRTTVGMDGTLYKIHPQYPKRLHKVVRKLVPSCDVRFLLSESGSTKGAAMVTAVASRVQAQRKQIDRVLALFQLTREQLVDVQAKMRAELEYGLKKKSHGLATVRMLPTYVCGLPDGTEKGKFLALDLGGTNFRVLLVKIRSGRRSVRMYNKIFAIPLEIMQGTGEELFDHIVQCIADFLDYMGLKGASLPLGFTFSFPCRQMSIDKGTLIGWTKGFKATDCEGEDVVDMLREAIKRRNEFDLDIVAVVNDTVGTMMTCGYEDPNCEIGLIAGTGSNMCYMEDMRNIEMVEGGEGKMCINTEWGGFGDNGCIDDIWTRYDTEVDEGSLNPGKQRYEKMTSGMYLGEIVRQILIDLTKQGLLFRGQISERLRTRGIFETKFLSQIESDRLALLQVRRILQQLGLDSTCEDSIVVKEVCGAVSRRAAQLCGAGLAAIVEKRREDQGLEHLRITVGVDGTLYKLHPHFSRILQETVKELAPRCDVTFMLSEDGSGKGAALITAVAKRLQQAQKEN

[5] = target: T3, Histone-lysine N-methyltransferase NSD2 (Homo sapiens, UniProt O96028); assay type: biochemical
T3 sequence (O96028 whole entry): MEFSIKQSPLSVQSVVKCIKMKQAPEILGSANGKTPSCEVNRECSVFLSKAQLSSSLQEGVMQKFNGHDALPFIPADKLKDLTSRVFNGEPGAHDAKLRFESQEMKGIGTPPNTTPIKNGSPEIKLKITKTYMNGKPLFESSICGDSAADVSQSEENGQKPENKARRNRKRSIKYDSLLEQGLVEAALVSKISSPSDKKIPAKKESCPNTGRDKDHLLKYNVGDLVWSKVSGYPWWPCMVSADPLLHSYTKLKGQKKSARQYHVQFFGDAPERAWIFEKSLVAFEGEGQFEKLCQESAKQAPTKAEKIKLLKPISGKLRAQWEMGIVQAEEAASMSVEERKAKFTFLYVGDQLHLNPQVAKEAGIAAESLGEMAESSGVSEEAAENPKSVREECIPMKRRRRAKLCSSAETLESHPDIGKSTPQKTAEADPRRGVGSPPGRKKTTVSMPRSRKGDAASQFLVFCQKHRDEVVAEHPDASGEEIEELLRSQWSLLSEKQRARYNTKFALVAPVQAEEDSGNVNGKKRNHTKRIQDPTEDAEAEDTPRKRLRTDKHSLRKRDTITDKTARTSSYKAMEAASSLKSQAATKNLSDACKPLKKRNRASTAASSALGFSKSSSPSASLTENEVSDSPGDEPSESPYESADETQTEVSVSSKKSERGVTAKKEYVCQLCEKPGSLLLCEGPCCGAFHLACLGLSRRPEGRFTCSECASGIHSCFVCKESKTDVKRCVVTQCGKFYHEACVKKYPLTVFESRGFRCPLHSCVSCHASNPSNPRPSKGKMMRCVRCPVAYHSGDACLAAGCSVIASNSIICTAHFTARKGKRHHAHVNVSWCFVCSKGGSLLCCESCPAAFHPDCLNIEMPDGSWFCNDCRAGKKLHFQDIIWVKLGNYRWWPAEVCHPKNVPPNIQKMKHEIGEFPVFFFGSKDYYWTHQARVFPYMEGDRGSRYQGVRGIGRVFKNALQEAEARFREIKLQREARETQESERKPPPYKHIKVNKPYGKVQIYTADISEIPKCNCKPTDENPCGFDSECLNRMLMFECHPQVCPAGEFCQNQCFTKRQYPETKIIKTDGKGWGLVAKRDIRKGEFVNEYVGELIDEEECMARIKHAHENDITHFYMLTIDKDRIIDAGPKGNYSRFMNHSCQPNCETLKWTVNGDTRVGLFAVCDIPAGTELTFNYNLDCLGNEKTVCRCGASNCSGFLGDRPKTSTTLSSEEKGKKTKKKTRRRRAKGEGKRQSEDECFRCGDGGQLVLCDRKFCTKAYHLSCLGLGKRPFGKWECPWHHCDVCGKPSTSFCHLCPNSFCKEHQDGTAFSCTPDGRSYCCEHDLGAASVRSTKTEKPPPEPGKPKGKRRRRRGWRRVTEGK

[6] = target: Mitogen-activated protein kinase 10 (Homo sapiens, UniProt P53779); assay: Dose response biochemical screening assay for inhibitors of c-Jun N-Terminal Kinase 3 (JNK3). [Related pubchem assays: 746 ]
[7] = target: Sphingosine 1-phosphate receptor 2 (Homo sapiens, UniProt O95136); assay: Dose Response Cell Based Assay for Agonists of the S1P2 Receptor. [Related pubchem assays: 729, 736, 843 ]; assay type: functional
[8] = target: Mannose-6-phosphate isomerase (Homo sapiens, UniProt P34949); assay: MPI inhibition at elevated mannose 6-phosphate – biochemical, fluorescence intensity, high mannose 6-phosphate, primary screen (AID 1220)
[9] = target: T4, Apoptotic protease-activating factor 1 (Homo sapiens, UniProt O14727); assay type: functional
T4 sequence (O14727 whole entry): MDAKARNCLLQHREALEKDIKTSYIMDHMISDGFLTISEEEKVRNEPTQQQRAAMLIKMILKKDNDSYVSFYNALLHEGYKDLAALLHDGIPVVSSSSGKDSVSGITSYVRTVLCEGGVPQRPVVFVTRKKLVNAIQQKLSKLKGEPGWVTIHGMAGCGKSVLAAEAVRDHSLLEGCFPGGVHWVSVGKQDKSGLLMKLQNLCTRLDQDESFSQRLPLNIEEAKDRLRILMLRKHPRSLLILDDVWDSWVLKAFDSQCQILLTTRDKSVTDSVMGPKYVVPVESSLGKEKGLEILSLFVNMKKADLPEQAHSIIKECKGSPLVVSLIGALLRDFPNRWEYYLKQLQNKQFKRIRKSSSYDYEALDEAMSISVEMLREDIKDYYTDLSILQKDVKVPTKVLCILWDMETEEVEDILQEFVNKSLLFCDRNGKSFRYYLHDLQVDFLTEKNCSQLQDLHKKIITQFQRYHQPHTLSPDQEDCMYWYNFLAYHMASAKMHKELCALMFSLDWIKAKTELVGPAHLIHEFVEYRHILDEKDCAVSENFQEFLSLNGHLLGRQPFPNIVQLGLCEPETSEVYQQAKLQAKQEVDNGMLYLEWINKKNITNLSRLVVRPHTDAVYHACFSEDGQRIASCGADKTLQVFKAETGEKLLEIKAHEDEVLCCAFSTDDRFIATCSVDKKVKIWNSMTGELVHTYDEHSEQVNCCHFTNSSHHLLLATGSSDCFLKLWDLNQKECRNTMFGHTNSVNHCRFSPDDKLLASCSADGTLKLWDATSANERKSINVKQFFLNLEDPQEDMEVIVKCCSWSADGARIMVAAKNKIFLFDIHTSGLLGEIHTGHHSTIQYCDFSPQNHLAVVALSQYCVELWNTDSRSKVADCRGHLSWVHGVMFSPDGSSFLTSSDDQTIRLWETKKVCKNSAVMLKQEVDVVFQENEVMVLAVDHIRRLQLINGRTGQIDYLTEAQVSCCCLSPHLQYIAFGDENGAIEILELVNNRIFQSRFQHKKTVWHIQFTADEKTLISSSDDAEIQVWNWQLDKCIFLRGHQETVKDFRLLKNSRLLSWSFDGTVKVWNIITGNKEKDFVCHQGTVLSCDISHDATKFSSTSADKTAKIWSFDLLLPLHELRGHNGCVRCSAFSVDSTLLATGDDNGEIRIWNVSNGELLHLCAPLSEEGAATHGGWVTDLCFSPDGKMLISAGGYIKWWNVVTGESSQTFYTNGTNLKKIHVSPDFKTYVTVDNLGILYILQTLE

[10] = target: T5, Rac GTPase-activating protein 1 (Homo sapiens, UniProt Q9H0H5); assay: blockers of MgcRacGAP-driven Rac1 GTP hydrolysis – biochemical, ADP Hunter fluorescence, primary and confirmatory, confirmation (AID 624330); assay type: functional
T5 sequence (Q9H0H5 whole entry): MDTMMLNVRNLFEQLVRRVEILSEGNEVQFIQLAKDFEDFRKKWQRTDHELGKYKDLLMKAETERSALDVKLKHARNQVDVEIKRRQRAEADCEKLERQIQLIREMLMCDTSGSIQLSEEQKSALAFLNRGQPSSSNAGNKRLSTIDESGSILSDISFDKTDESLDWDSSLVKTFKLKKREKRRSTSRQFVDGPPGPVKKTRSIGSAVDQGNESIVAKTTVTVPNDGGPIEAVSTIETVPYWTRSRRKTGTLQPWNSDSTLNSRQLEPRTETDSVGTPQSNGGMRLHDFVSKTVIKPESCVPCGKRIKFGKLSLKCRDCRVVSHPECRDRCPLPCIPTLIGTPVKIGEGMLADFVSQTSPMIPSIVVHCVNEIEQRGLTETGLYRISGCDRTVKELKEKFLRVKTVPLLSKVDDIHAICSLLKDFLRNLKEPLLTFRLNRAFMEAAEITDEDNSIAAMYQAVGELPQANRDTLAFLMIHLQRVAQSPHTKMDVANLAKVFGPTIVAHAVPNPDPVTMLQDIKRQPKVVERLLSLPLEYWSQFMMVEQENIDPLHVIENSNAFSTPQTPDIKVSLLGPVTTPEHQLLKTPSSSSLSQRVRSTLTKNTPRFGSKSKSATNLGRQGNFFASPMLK

[11] = target: T6, Low molecular weight phosphotyrosine protein phosphatase (Homo sapiens, UniProt P24666); assay: inhibition of LMPTP-A enzymatic activity – biochemical, OMFP substrate, fluorescence intensity, set 2, dose response (AID 743307); assay type: functional
T6 sequence (P24666 whole entry): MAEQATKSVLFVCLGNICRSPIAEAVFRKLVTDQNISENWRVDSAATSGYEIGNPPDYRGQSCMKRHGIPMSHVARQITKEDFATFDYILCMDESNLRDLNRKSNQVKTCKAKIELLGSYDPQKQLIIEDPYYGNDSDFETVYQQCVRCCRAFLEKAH

[12] = target: T6, Low molecular weight phosphotyrosine protein phosphatase; assay: inhibition of human LMPTP enzyme activity – biochemical, absorbance, pNPP substrate, LMPTP-A isoform, set 2, orthogonal assay, dose response (AID 743308); assay type: functional

Chain of Mannose-6-phosphate isomerase (P34949 whole entry): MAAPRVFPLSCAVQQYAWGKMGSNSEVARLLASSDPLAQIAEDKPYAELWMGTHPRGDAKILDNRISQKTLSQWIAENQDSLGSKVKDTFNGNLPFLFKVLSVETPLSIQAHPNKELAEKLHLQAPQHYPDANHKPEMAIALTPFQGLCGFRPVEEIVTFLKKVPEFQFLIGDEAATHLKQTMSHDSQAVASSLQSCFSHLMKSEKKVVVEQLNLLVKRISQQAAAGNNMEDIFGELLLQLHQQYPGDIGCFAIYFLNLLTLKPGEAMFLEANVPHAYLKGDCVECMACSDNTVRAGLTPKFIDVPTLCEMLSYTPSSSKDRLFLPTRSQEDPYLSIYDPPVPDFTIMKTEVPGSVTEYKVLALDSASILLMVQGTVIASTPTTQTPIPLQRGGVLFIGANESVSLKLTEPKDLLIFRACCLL
Chain of Bifunctional protein GlmU (P9WMN3 whole entry): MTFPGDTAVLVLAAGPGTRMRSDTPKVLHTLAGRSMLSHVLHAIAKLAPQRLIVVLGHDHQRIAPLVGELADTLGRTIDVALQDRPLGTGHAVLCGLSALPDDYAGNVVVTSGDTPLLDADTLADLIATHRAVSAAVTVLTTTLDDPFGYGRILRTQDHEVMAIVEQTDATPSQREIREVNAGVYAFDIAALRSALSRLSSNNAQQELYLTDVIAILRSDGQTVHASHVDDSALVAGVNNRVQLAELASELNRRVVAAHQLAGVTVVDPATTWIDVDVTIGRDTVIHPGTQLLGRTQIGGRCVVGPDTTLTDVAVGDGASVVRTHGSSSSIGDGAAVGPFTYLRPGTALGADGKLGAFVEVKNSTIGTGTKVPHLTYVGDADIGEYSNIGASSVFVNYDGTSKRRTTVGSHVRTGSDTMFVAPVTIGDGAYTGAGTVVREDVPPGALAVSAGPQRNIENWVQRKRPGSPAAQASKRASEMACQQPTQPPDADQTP
Chain of Sphingosine 1-phosphate receptor 2 (O95136 whole entry): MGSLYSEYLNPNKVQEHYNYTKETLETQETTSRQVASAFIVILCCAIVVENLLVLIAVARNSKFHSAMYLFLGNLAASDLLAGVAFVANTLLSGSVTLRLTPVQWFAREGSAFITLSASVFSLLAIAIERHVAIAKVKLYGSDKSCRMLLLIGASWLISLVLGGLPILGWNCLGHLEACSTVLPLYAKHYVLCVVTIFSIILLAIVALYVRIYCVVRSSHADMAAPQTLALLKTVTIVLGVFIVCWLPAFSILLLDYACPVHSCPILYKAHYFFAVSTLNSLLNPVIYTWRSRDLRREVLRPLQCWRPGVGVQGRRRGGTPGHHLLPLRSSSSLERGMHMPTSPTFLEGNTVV
Chain of Mitogen-activated protein kinase 10 (P53779 whole entry): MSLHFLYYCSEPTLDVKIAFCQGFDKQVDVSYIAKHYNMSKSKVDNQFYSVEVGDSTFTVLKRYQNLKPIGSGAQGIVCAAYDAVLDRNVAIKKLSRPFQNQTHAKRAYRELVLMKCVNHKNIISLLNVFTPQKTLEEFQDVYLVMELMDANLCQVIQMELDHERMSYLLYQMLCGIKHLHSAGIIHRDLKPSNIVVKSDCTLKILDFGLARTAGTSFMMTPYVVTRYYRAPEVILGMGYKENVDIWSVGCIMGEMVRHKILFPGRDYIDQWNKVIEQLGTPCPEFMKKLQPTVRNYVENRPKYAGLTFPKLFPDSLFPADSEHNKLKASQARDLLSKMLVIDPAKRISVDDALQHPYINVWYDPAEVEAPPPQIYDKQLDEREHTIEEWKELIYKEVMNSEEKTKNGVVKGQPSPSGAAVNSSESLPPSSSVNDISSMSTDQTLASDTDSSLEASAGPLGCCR

In the case of `COc1cc(/C=C(\C#N)c2nc3cc(C)ccc3[nH]2)cc([N+](=O)[O-])c1O`, the IC50 [1] was 16.2 µM (active), the IC50 [2] was 94.3 µM (active) and the IC50 [3] was 24.5 µM (active). The IC50 [4] was 16.1 µM (active) and the AC50 [5] was > 20 µM (inactive).
With `Cc1nn(C)cc1CNC(=O)c1cnn2c(C(F)F)cc(C3CC3)nc12` the IC50 [6] was 26.8 µM (not active).
For `COC(=O)c1c[nH]nc1N=C(S)Nc1ccccc1C`, the EC50 [7] was > 50 µM (not active).
In the case of `CC1(C)CNc2cc(N)ccc2S1`, the IC50 [8] was > 50 µM (not active), the IC50 [9] was 7.45 µM (active) and the IC50 [10] was 22.9 µM (active).
With `CCN(CC)c1nc(-c2ccccc2)nc2ccccc12` the IC50 [11] was 53.1 µM (inactive) and the IC50 [12] was > 80 µM (inactive).
